Legend:
[1] = biological target: T1, ALK protein in H3122 (EML4-ALK) cells (Homo sapiens, UniProt Q9UM73); experiment: Western blot of ALK protein level (degradation, DC50), ALK phosphorylation and downstream signaling in H3122 cells; assay type: cell-based; settings: for DC50: ALK protein degradation in H3122 cells
T1 construct: EML4 (Echinoderm microtubule-associated protein-like 4, Q9HC35) fusion partner, variant 1; host or cells: NCI-H3122 lung adenocarcinoma cells; the other entry of the earlier key: EML4 (Q9HC35, Echinoderm microtubule-associated protein-like 4)

SR (NPM-ALK) cells = experiment: Growth inhibition IC50 in ALCL SR cells (CCK8/WST, 72 hours); assay type: cell-based; settings: 72 h, SR cells, WST; Brigatinib-based PROTAD molecules (Table 3)

T1 sequence (Q9UM73 with tags, fused parts or gaps): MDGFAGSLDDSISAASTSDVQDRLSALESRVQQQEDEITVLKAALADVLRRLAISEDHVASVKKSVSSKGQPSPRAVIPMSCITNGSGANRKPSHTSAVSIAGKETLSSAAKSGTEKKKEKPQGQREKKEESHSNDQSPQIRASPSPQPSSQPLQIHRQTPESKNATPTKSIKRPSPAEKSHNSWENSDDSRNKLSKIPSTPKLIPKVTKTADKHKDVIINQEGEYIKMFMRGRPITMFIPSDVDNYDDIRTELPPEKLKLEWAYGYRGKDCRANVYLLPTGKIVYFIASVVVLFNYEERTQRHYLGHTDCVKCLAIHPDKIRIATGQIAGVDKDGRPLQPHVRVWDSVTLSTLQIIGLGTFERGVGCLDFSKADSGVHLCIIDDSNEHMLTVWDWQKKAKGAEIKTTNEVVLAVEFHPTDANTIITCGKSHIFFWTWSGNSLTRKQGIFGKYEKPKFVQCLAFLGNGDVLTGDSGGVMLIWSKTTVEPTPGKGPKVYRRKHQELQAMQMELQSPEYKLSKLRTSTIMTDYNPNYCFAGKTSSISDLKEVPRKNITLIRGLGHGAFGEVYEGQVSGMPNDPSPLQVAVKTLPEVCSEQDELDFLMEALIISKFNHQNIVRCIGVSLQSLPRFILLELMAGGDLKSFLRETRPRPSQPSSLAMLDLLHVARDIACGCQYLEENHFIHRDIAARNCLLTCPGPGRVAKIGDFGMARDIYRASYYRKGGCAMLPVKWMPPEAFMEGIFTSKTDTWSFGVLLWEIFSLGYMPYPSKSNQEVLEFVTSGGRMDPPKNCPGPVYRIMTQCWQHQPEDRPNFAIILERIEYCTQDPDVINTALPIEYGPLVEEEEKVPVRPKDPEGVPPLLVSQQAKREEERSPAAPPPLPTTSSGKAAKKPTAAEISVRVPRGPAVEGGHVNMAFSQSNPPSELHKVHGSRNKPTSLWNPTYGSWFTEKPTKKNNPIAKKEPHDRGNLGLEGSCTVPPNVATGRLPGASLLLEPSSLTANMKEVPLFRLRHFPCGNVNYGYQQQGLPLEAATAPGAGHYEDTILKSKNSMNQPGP

DC50 [1] | concentration at which ALK protein level was reduced ([1]; H3122 cells, western blot) | SMILES | IC50 (SR (NPM-ALK) cells)
100 to 500 nM |  | C[C@@H](Oc1cc(-c2cnn(C3CCN(C(=O)CCOCCOCCOCCOCCNc4cccc5c4C(=O)N(C4CCC(=O)NC4=O)C5=O)CC3)c2)cnc1N)c1c(Cl)ccc(F)c1Cl (stereo partly drawn) [SIAIS151060, 4-((15-(4-(4-(6-amino-5-((R)-1-(2,6-dichloro-3-fluorophenyl)ethoxy)pyridin-3-yl)-1H-pyrazol-1-yl)piperidin-1-yl)-15-oxo-3,6,9,12-tetraoxapentadecyl)amino)-2-(2,6-dioxopiperidin-3-yl)isoindoline-1,3-dione] | 
1 to 10 nM | about 50 nM | C[C@@H](Oc1cc(-c2cnn(C3CCN(C(=O)CCCCNc4cccc5c4C(=O)N(C4CCC(=O)NC4=O)C5=O)CC3)c2)cnc1N)c1c(Cl)ccc(F)c1Cl (stereo partly drawn) [SIAIS151082, 4-((5-(4-(4-(6-amino-5-((R)-1-(2,6-dichloro-3-fluorophenyl)ethoxy)pyridin-3-yl)-1H-pyrazol-1-yl)piperidin-1-yl)-5-oxopentyl)amino)-2-(2,6-dioxopiperidin-3-yl)isoindoline-1,3-dione] | 
10 to 50 nM |  | C[C@@H](Oc1cc(-c2cnn(C3CCN(C(=O)CNc4cccc5c4C(=O)N(C4CCC(=O)NC4=O)C5=O)CC3)c2)cnc1N)c1c(Cl)ccc(F)c1Cl (stereo partly drawn) [SIAIS151083, 4-((2-(4-(4-(6-amino-5-((R)-1-(2,6-dichloro-3-fluorophenyl)ethoxy)pyridin-3-yl)-1H-pyrazol-1-yl)piperidin-1-yl)-2-oxoethyl)amino)-2-(2,6-dioxopiperidin-3-yl)isoindoline-1,3-dione] | 
100 to 500 nM |  | COc1cc(N2CCC(NC(=O)CCOCCNc3cccc4c3C(=O)N(C3CCC(=O)NC3=O)C4=O)CC2)ccc1Nc1ncc(Cl)c(Nc2ccccc2P(C)(C)=O)n1 (centres unmarked) [SIAIS151113] | 7.5 ± 5.2 nM
100 to 500 nM |  | COc1cc(N2CCC(NC(=O)CCOCCOCCNc3cccc4c3C(=O)N(C3CCC(=O)NC3=O)C4=O)CC2)ccc1Nc1ncc(Cl)c(Nc2ccccc2P(C)(C)=O)n1 (centres unmarked) [SIAIS151114, N-(1-(4-((5-chloro-4-((2-(dimethylphosphoryl)phenyl)amino)pyrimidin-2-yl)amino)-3-methoxyphenyl)piperidin-4-yl)-3-(2-(2-((2-(2,6-dioxopiperidin-3-yl)-1,3-dioxoisoindolin-4-yl)amino)ethoxy)ethoxy)propenamide] | 10.9 ± 7.5 nM
100 to 500 nM |  | COc1cc(N2CCC(NC(=O)CCOCCOCCOCCNc3cccc4c3C(=O)N(C3CCC(=O)NC3=O)C4=O)CC2)ccc1Nc1ncc(Cl)c(Nc2ccccc2P(C)(C)=O)n1 (centres unmarked) [SIAIS151115, N-(1-(4-((5-chloro-4-((2-(dimethylphosphoryl)phenyl)amino)pyrimidin-2-yl)amino)-3-methoxyphenyl)piperidin-4-yl)-3-(2-(2-(2-((2-(2,6-dioxopiperidin-3-yl)-1,3-dioxoisoindolin-4-yl)amino)ethoxy)ethoxy)ethoxy)propenamide] | 8 ± 3.2 nM
100 to 500 nM |  | COc1cc(N2CCC(NC(=O)CCOCCOCCOCCOCCNc3cccc4c3C(=O)N(C3CCC(=O)NC3=O)C4=O)CC2)ccc1Nc1ncc(Cl)c(Nc2ccccc2P(C)(C)=O)n1 (centres unmarked) [SIAIS151116, N-(1-(4-((5-chloro-4-((2-(dimethylphosphoryl)phenyl)amino)pyrimidin-2-yl)amino)-3-methoxyphenyl)piperidin-4-yl)-1-((2-(2,6-dioxopiperidin-3-yl)-1,3-dioxoisoindolin-4-yl)amino)-3,6,9,12-tetraoxapentadecan-15-amide] | 15.3 ± 9.8 nM
 |  | COc1cc(N2CCC(N3CCN(C(=O)CCCNc4cccc5c4CN(C4CCC(=O)NC4=O)C5=O)CC3)CC2)ccc1Nc1ncc(Cl)c(Nc2ccccc2P(C)(C)=O)n1 (centres unmarked) [SIAIS219155, 3-(4-((4-(4-(1-(4-((5-chloro-4-((2-(dimethylphosphoryl)phenyl)amino)pyrimidin-2-yl)amino)-3-methoxyphenyl)piperidin-4-yl)piperazin-1-yl)-4-oxobutyl)amino)-1-oxoisoindolin-2-yl)piperidine-2,6-dione] | 4.34 ± 0.4 nM
 |  | COc1cc(N2CCC(N3CCN(C(=O)CCCCNc4cccc5c4CN(C4CCC(=O)NC4=O)C5=O)CC3)CC2)ccc1Nc1ncc(Cl)c(Nc2ccccc2P(C)(C)=O)n1 (centres unmarked) [SIAIS219156, 3-(4-((5-(4-(1-(4-((5-chloro-4-((2-(dimethylphosphoryl)phenyl)amino)pyrimidin-2-yl)amino)-3-methoxyphenyl)piperidin-4-yl)piperazin-1-yl)-5-oxopentyl)amino)-1-oxoisoindolin-2-yl)piperidine-2,6-dione] | 3.09 ± 0.2 nM
 |  | COc1cc(N2CCC(N3CCN(C(=O)CCCCCNc4cccc5c4CN(C4CCC(=O)NC4=O)C5=O)CC3)CC2)ccc1Nc1ncc(Cl)c(Nc2ccccc2P(C)(C)=O)n1 (centres unmarked) [SIAIS219157, 3-(4-((6-(4-(1-(4-((5-chloro-4-((2-(dimethylphosphoryl)phenyl)amino)pyrimidin-2-yl)amino)-3-methoxyphenyl)piperidin-4-yl)piperazin-1-yl)-6-oxohexyl)amino)-1-oxoisoindolin-2-yl)piperidine-2,6-dione] | 1.99 ± 0.2 nM
 |  | COc1cc(N2CCC(N3CCN(C(=O)CCc4cccc5c4C(=O)N(C4CCC(=O)NC4=O)C5=O)CC3)CC2)ccc1Nc1ncc(Cl)c(Nc2ccccc2P(C)(C)=O)n1 (centres unmarked) [SIAIS219158, 4-(3-(4-(1-(4-((5-chloro-4-((2-(dimethylphosphoryl)phenyl)amino)pyrimidin-2-yl)amino)-3-methoxyphenyl)piperidin-4-yl)piperazin-1-yl)-3-oxopropyl)-2-(2,6-dioxopiperidin-3-yl)isoindoline-1,3-dione] | 30.3 ± 3.8 nM
 |  | COc1cc(N2CCC(NC(=O)CCc3cccc4c3C(=O)N(C3CCC(=O)NC3=O)C4=O)CC2)ccc1Nc1ncc(Cl)c(Nc2ccccc2P(C)(C)=O)n1 (centres unmarked) [SIAIS219170, N-(1-(4-((5-chloro-4-((2-(dimethylphosphoryl)phenyl)amino)pyrimidin-2-yl)amino)-3-methoxyphenyl)piperidin-4-yl)-3-(2-(2,6-dioxopiperidin-3-yl)-1,3-dioxoisoindolin-4-yl)propanamide] | 10.8 ± 1.4 nM
 |  | COc1cc(N2CCC(NCCCCNc3cccc4c3C(=O)N(C3CCC(=O)NC3=O)C4=O)CC2)ccc1Nc1ncc(Cl)c(Nc2ccccc2P(C)(C)=O)n1 (centres unmarked) [SIAIS220026, 4-((4-((1-(4-((5-chloro-4-((2-(dimethylphosphoryl)phenyl)amino)pyrimidin-2-yl)amino)-3-methoxyphenyl)piperidin-4-yl)amino)butyl)amino)-2-(2,6-dioxopiperidin-3-yl)isoindoline-1,3-dione] | 7.4 nM
 |  | COc1cc(N2CCC(N3CCN(CCNc4cccc5c4C(=O)N(C4CCC(=O)NC4=O)C5=O)CC3)CC2)ccc1Nc1ncc(Cl)c(Nc2ccccc2P(C)(C)=O)n1 (centres unmarked) [SIAIS220027, 4-((2-(4-(1-(4-((5-chloro-4-((2-(dimethylphosphoryl)phenyl)amino)pyrimidin-2-yl)amino)-3-methoxyphenyl)piperidin-4-yl)piperazin-1-yl)ethyl)amino)-2-(2,6-dioxopiperidin-3-yl)isoindoline-1,3-dione] | 3.8 nM
 |  | COc1cc(N2CCC(N(C)C(=O)CCCNc3cccc4c3C(=O)N(C3CCC(=O)NC3=O)C4=O)CC2)ccc1Nc1ncc(Cl)c(Nc2ccccc2P(C)(C)=O)n1 (centres unmarked) [SIAIS220030, N-(1-(4-((5-chloro-4-((2-(dimethylphosphoryl)phenyl)amino)pyrimidin-2-yl)amino)-3-methoxyphenyl)piperidin-4-yl)-4-((2-(2,6-dioxopiperidin-3-yl)-1,3-dioxoisoindolin-4-yl)amino)-N-methylbutanamide] | 5.8 nM

— patent US11771709B2, “ALK protein degradation agent and anti-tumor application thereof” (ShanghaiTech University, priority 2017, dated 2023)
